“Also recorded” adds a separate entry of the source.
How the values were obtained:
[1] = system: ES cell-derived insulin-secreting islet clusters; experiment: Insulin secretion from ES cell-derived islet clusters, insulin ELISA; format: cell-based, murine; conditions: for insulin secretion in response to agonists (secretagogues): in the presence of low concentration (5 mM) of glucose
Method: A series of experiments were conducted to measure the kinetics and pharmacology of glucose-dependent insulin release. Insulin secretion was measured in Krebs-Ringer-bicarbonate buffer containing 120 mM NaCl, 5 mM KCl, 2.5 mM CaCl2, 1.1 mM MgCl2, 25 mM NaHCO3 and 0.1% bovine serum albumin at 37° C. Inhibitors of insulin secretion (nifedipine and diazoxide) were added to buffer during preincubation (30 min) and throughout the incubation period. For determination of total cellular insulin content, insulin was extracted from cells with acid ethanol (10% glacial acetic acid in absolute ethanol) overnight at 4° C., followed by cell sonication. Total cellular and secreted insulin was assayed using insulin ELISA kit (ALPCO, Windham, N.H.). Protein concentrations were determined using DC protein assay system (Bio-Rad, Hercules, Calif.).
To determine if the islet clusters utilize physiological glucose-mediated signaling pathways, the effect of several well-characterized agonists and antagonists of insulin secretion were examined. The mechanism by which glucose stimulates insulin secretion in vivo is complex. As outlined in FIG. 3B, transport of glucose into the cell, and its metabolism results in ATP production, an event which, in turn, leads to inhibition of ATP-dependent K^+ channels, cell membrane depolarization, opening of the voltage-dependent Ca^++ channels, and influx of extracellular Ca^++ into the cell. Additionally, intracellular Ca^++ can be elevated by release of Ca^++ from intracellular stores through other mechanisms. Elevation of free intracellular Ca^++ is coupled to multiple phosphorylation events modulated by protein kinase C (PKC) and protein kinase A (PKA) cascades, which ultimately lead to release of insulin from the cell (McClenaghan et al., J Mol. Med., 77:235, 1999).

ES cell cultures = experiment: LIF treatment of ES cell cultures at stage 2 (EB formation), immunostaining for EN-1, PDX-1, TuJ1, GFAP; format: cell-based
Method: FIG. 5 is a set of panels showing the neural and pancreatic differentiation of ES cells. FIG. 1A is a set of digital images showing the cells during the procedure for induction of midbrain dopaminergic neurons from ES cells as previous described (see WO 01/83715, herein incorporated by reference). Briefly, the ES cells were taken through 5 steps or stages. In stage 1 undifferentiated ES cells were cultured for 5 days in the presence of 15% fetal calf serum (FCS) on gelatin coated tissue culture dishes in the presence of LIF (1,400 U/ml). In stage 2 embryoid bodies (Ebs) were generated in the presence of FCS for 4 days in the presence or absence of LIF (1,000 U/ml.). In stage 3, the EBs were plated into ITSFn medium (Okabe et al., Mech. Dev. 59: 89-102, 1996) where over 10 days Nestin+ cells migrated from the cell aggregates. In stage 4 these Nestin+ cells were resuspended and expanded for 4 days in N2 medium containing bFGF, sonic hedgehog (Shh) and fibroblast growth factor-8 (FGF8). In stage 5 the medium was changed into N2 medium without bFGF, Shh or FGF8. These cells differentiated efficiently into neurons and astrocytes over a two week period. Embryoid bodies were generated in the presence (LIF+) or absence (LIF−) of LIF (1000 U/ml) and differentiated. Double-immunostaining for TuJ1/GFAP (upper panels, day 8 in stage 5) and PDX-1/En-1 (lower panels, day 3 in stage 4). LIF treatment in stage 2 (EB formation) increases the neuronal (TuJ1+cells, light grey) and decreases the astrocytic (GFAP+, dark grey) population. […] FIG. 5C is a bar graph showing that the yield of En-1+ and PDX-1+ cells is expressed as a percentage of total cells at stage 4.
The methods disclosed herein include five stages: (1) expansion of ES cells (2) generation of EB (3) selection for CNS precursor cells (4) expansion of pancreatic (versus central nervous system (CNS)) precursor cells, and (5) differentiation of pancreatic endocrine cells (versus differentiation of neuronal cells). Expansion of ES cells and generation of EB was performed as disclosed herein. EB were cultured in DMEM/15% serum (ES medium) with LIF (1000 units (U)/ml) for 4 days with changing medium every 2 day. After 4 days, EBs were transferred to a tissue culture dish cultured in ITS medium containing fibronectin for 10-12 days. EBs which were kept in absence of LIF in stage II were phenotypically different than EB cultured in the presence of LIF in stage II. In stage 1V, ES-derived CNS precursor were cultured in N2 medium in the presence of bFGF (20 ng/ml) and Shh (500 ng/ml) and FGF8 (100 ng/ml) for 4 days and after withdrawal of bFGF/SHH/FGF8, differentiated them for 10-12 day in N2 medium with ascorbic acid. Specifically, EB cultured in the absence of LIF were spread out in stage III. EBs which were treated with LIF maintained a round shape and CNS precursor cells migrated from attaching point of EB in dishes. Therefore, a selection for CNS precursor was accomplished by culturing in the […] of LIF.

[2] = at stage 4, LIF at stage 2 (EB formation)

With `CC(C)Cn1c(=O)n(C)c(=O)c2[nH]cnc21` [IBMX, 3-isobutil-1-methylxanthine] the “insulin secretion in response to agonists (secretagogues)” value (from here on “insulin secretion in response”) [1] was “stimulated insulin secretion”.

`C[N+](C)(C)CCOC(N)=O` [carbachol] was tested, and the “insulin secretion in response” value [1] was “stimulated insulin secretion”.

With `CC1=NS(=O)(=O)c2cc(Cl)ccc2N1` [diazoxide] the “insulin secretion in the presence of antagonists (inhibitors)” value ([1]; in the presence of high glucose concentrations (20 mM)) was “inhibited insulin secretion”.

For “LIF: growth factor that prevents differentiation of ES cells; glycosylated 58 kDa protein of 179 amino acids”, the “PDX-1 positive cells / pancreatic precursor cells” value (ES cell cultures; [2]) was “negatively regulates; also recorded: Only few”, the “expression of EN-1 / midbrain precursor cells (En-1+ cells)” value (ES cell cultures; [2]) was “efficiently enhances; also recorded: increases” and the “EN-1 positive cells, share of total ES cell-derived cell population” value (ES cell cultures; at stage 4, LIF present at stage 2) was “up to 80%”. For the same compound, the “yield of neurons / neuronal (TuJ1+) population” value (ES cell cultures; at stage 5, LIF at stage 2 (EB formation)) was “increased” and the “astrocytic (GFAP+) population” value (ES cell cultures; day 8 in stage 5, LIF at stage 2 (EB formation)) was “decreases”.

In the case of `CCCCNC(=O)NS(=O)(=O)c1ccc(C)cc1` [tolbutamide], the “insulin secretion in response” value [1] is reported as “stimulated insulin secretion”.
